Source: patent US20100273722A1, “MODIFIED MINIATURE PROTEINS” (Yale University, priority 2007, published 2010)
“And” between values parts separate entries of the source, which are not always exact repeats. Equal entries are not always repeated. Where two headings read alike, the source gives them in different places. Residues, ends and D or L forms follow the SMILES beside them.

Legend:
c-Src SH3^P133L = c-Src SH3^P133L (Gallus gallus, UniProt P00523, P133L); assay: Fluorescence polarization direct binding assay, c-Src SH3^P133L; parameters: species or system chicken; conditions: 50 nM fluorescently labeled ligand; lower limit estimated; read-out: Kd, c-Src P133L SH3
Experimental: (§1) Polarization was measured by excitation with vertically polarized light at 485 nm and the fluorescence emission detected at 530 nm in both the vertical and horizontal directions. An average of five measurements were recorded for each well. Samples were equilibrated at room temperature for 25 min before analysis, a time sufficient for the binding reactions to reach equilibrium. The polarization data were fit using Kaleidagraph v3.6 software to Eq. 5, which is derived from first principles without assumptions. […] In this equation, Pobs is the observed polarization value at any given concentration of target protein (GST•SH3 domain). Pmin is the polarization of peptide^Flu at 50 nM in the absence of target protein. Pmax is the maximum polarization of peptide^Flu at saturation with target protein. Kd is the equilibrium dissociation constant. […] Free fits are shown. Kd values were estimated as described.

[1] = biological target: Fyn SH3 domain-GST fusion protein (Homo sapiens, UniProt P06241); assay: Fluorescence polarization direct binding assay, Fyn SH3; conditions: 50 nM fluorescently labeled ligand, PBS pH 7.4; read-out: Kd, Fyn SH3
Chain of Fyn SH3 domain-GST fusion protein (P06241 81-142): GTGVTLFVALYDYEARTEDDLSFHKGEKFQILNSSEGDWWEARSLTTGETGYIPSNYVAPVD
Experimental: (§2) Polarization was measured by excitation with vertically polarized light at 485 nm and the fluorescence emission detected at 530 nm in both the vertical and horizontal directions. An average of five measurements were recorded for each well. Samples were equilibrated at room temperature for 25 min before analysis, a time sufficient for the binding reactions to reach equilibrium. The polarization data were fit using Kaleidagraph v3.6 software to Eq. 5, which is derived from first principles without assumptions. […] In this equation, Pobs is the observed polarization value at any given concentration of target protein (GST•SH3 domain). Pmin is the polarization of peptide^Flu at 50 nM in the absence of target protein. Pmax is the maximum polarization of peptide^Flu at saturation with target protein. Kd is the equilibrium dissociation constant. […] In these cases a lower limit Kd was estimated by setting Pmax equal to the observed polarization at the highest target protein concentration tested, which was often limited by solubility. […] Free fits are shown. Kd values were estimated as described. […] In several cases, the plots of polarization versus [SH3 domain] began to increase at high [SH3 domain] (>50 micromolar), perhaps because of a second binding event. In these cases (indicated by an asterisk (*) in Table 5), data above 50 micromolar target protein was excluded during the curve fits.

[2] = biological target: Lck SH3 domain-GST fusion protein (Homo sapiens, UniProt P06239); assay: Fluorescence polarization direct binding assay, Lck SH3; conditions: 50 nM fluorescently labeled ligand, PBS pH 7.4; read-out: Kd, Lck SH3
Chain of Lck SH3 domain-GST fusion protein (P06239 62-128): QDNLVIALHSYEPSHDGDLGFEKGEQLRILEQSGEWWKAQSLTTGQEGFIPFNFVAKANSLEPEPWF
Experimental: as §2

[3] = biological target: Hck SH3 domain-GST fusion protein (Homo sapiens, UniProt P08631); assay: Fluorescence polarization direct binding assay, Hck SH3; conditions: 50 nM fluorescently labeled ligand, PBS pH 7.4; read-out: Kd, Hck SH3
Chain of Hck SH3 domain-GST fusion protein (P08631 77-137): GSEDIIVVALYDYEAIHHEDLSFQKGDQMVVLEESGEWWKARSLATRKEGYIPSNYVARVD
Experimental: as §1

[4] = biological target: T1, c-Src SH3 domain-GST fusion protein (Gallus gallus, UniProt P00523); assay: Fluorescence polarization direct binding assay, c-Src SH3; parameters: species or system chicken; conditions: 50 nM fluorescently labeled ligand, PBS pH 7.4; read-out: Kd, c-Src SH3
Experimental: as §1

[5] = biological target: Lyn SH3 domain-GST fusion protein (Homo sapiens, UniProt P07948); assay: Fluorescence polarization direct binding assay, Lyn SH3; conditions: 50 nM fluorescently labeled ligand, PBS pH 7.4; read-out: Kd, Lyn SH3
Chain of Lyn SH3 domain-GST fusion protein (P07948 62-122): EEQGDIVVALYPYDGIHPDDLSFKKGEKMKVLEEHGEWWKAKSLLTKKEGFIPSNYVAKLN
Experimental: as §2

Hck kinase = biological target: T2, Hck kinase (Homo sapiens, UniProt P08631); assay: Hck kinase activation, NADH-coupled assay; type: biochemical; conditions: Activator 50 micromolar
T2 construct: His6 (N); made in house; host or cells: HighFive insect cells, co-infected with Hck and Csk baculovirus
T2 sequence (P08631 whole entry): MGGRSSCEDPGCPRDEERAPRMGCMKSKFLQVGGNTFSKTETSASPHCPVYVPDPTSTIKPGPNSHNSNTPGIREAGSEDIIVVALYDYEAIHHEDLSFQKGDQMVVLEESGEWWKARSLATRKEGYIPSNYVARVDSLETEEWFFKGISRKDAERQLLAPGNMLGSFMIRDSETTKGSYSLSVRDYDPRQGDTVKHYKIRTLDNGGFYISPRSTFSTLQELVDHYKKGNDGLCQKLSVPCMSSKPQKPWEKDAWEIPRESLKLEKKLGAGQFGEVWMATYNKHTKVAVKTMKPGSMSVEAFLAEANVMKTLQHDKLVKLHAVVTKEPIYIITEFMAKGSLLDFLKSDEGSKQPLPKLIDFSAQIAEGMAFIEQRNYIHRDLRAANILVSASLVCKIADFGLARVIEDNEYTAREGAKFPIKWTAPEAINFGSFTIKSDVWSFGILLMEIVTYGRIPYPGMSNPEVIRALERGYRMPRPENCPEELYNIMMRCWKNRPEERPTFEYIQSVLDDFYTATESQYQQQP
Experimental: Activation of Hck kinase was measured using a validated NADH-coupled assay as described. Briefly, purified Hck kinase (15 micromolar) was first pre-incubated with 500 micromolar ATP and 20 mM MgCl2 for about 30 min on ice to initiate autophosphorylation of Y416. The autophosphorylated product (0.55 micromolar final concentration) was then incubated in Hck Reaction Buffer (20 mM MgCl2, 0.1 mM DTT, 20 μg/mL BSA, 100 mM HEPES (pH 7.5)) for 10 min at room temperature with the indicated concentration of Nef or miniature protein. At this time the remaining assay components (1 mM PEP, 0.2 mM NADH, 6 U pyruvate kinase (Type II from rabbit muscle, Sigma), 6 U L-lactic dehydrogenase (Type II from rabbit muscle, Sigma), 600 micromolar substrate peptide, and 500 micromolar ATP) were added to initiate the reaction (total volume 200 microliters) and the absorbance at 340 nm was monitored every 10 sec for 10 min using a Beckman DU 730 UVN is Spectrophotomer. The activation constant Kact for each ligand was calculated from the initial rate as a function of ligand concentration as previously described, using Eq. 6. Fold activation was calculated by dividing the rate in the presence of ligand by the rate in the absence of ligand.
va=Vact[L]/(Kact±[L]) Equation 6.
In this equation va is velocity measured in the presence of ligand minus the velocity measured in its absence; Vact is the maximal activated velocity minus the velocity measured in the absence of ligand; [L] is the concentration of activator and Kact is concentration of activator at half-maximal activation.

[6] = biological target: T1, c-Src SH3 domain-GST fusion protein; conditions: literature value; read-out: Kd, c-Src SH3 (reported); cited from earlier work
[7] = biological target: non-Src family SH3 domain (Ab1, Nck1, Grb2, Abp1); assay: Fluorescence polarization binding to non-Src family SH3 domains; conditions: data not shown
Experimental: Fluorescence polarization assays were performed with 50 nM fluorescently labeled miniature protein and the indicated SH3 domain-GST fusion protein in PBS (1 mM KH2PO4, 155 mM NaCl, 3 mM Na2HPO4 (pH 7.4)) supplemented with 1 mM DTT and using the Analyst™ AD 96·384 automated fluorescence plate reader (LjL Biosystems). Binding reactions (32 microliters) were analyzed within 384-well assay plates (Corning Inc., Plate #3654) using settings defined by Criterion Host software v.2.00.11 and z height 1 mm. Polarization was measured by excitation with vertically polarized light at 485 nm and the fluorescence emission detected at 530 nm in both the vertical and horizontal directions. An average of five measurements were recorded for each well. Samples were equilibrated at room temperature for 25 min before analysis, a time sufficient for the binding reactions to reach equilibrium. […]
In this equation, Pobs is the observed polarization value at any given concentration of target protein (GST•SH3 domain). […] The observed binding free energy, ΔG, was calculated from the relationship ΔG=−RT ln Kd^−1, where R is the universal gas constant (1.987×10^−3 kcal mol^−1 K^−1) and T is the temperature in Kelvin (298 K). Fluorescence polarization analysis of the binding of fluorescently labeled miniature proteins and Peptide 1 to c-Src SH3^P133L are shown in FIG. 11. […]

- Kd (c-Src SH3^P133L): > 20 µM
- Kd [1]: 0.87 to 2 µM
- Kd [2]: > 20 µM
- Kd [3]: 0.87 to 2 µM
- Kd [4]: 1.5 ± 0.1 µM
- Kd [5]: 0.87 to 2 µM
- Activity (Hck kinase): 33.9 ± 3.2 nmol/s
- Fold-Activation (Hck kinase; rate with ligand / rate without ligand): 3 and 3 ± 1
- Kd [7]: > 20 µM
Structure (SMILES): CC(C)C[C@H](NC(=O)[C@H](CCCNC(=N)N)NC(=O)[C@@H]1CCCN1C(=O)[C@H](CCCNC(=N)N)NC(=O)[C@H](CC(N)=O)NC(=O)[C@H](CCCNC(=N)N)NC(=O)[C@@H]1CCCN1C(=O)[C@@H]1CCCN1C(=O)[C@H](CC(C)C)NC(=O)[C@@H]1CCCN1C(=O)[C@@H]1CCCN1C(=O)[C@H](C)N)C(N)=O [Peptide 1] (H-APPLPPRNRPRL-NH2)
- Kd [6]: 1.2 µM
